Patent US9212196B2, “Hypophosphorous acid derivatives having antihyperalgic activity and biological applications thereof” (UNIVERSITE PARIS DESCARTES, priority 2011, dated 2015)
Structures can show the parent of a compound that is named as a salt.

Columns and labels:
Format in all cases: cell-based
mGlu4 = mGlu4 (Homo sapiens (Human), UniProt Q14833); assay: Agonist activity on mGlu4 in transfected HEK293 cells, intracellular calcium release (Fluo4-AM); details: transfected cells, calcium release; read-out: mGlu4 EC50 μM (n)
From the text: (§1) The EC50's are compared to those of L-AP4 (L-2-amino-4-phosphonobutyric acid) used as a reference.
(§2) Metabotropic glutamate receptors were transiently transfected in HEK293 cells by electroporation as described elsewhere (Brabet I. et al., 1998) and plated in 96-well microplates. The high affinity glutamate transporter EAAC1 was co-transfected with the receptor in order to avoid any influence of glutamate released by the cells in the assay medium. In the experiments carried out by the inventors, Group-III mGluRs were co-transfected with a chimeric G-protein which couples the activation of the receptor to the phospholipase-C (PLC) pathway. Thus receptor activation induces production of inositol phosphate (IP) which in turn induces intracellular Ca^2+ release. Receptor activity was then determined by measurement of the IP production or Ca release as already described (Goudet C. et al., PNAS 2004). For intracellular calcium measurements, cells expressing mGluRs were loaded with Ca2+-sensitive fluorescent dye Fluo-4 AM (Invitrogen, Cergy-Pontoise, France) dissolved in Hanks' balanced salt solution (HBSS, Invitrogen, Cergy-Pontoise, France) containing 2.5 mM Probenicid (Sigma-Aldrich Chemie, Saint-Quentin Fallavier, France) for 1 h at 37° C., then washed and incubated with HBSS containing probenecid. A drug plate was prepared with the various concentrations of agonist to be tested and drug solution was added in each well after 20 s of recording. Fluorescence signals (excitation 485 nm, emission 525 nm) were measured by using the fluorescence microplate reader Flexstation III (Molecular Devices, Saint-Grégoire, France) at sampling intervals of 1.5 s for 60 s. All points are realized in triplicate.
(§3) The dose-response curves were fitted using the GraphPad Prism program and the following equation: y=[(ymax−ymin)/(1+(x/EC50)n)]+ymin where EC50 is the concentration of the compound necessary to obtain the half maximal effect and n is the Hill coefficient.

mGlu8 = mGlu8 (Homo sapiens (Human), UniProt O00222); assay: Agonist activity on mGlu8 in transfected HEK293 cells, intracellular calcium release (Fluo4-AM); details: for mGlu8/4 EC50 ratio: ratio of mGlu8 EC50 to mGlu4 EC50; for EC50: transfected cells, calcium release, read-out: mGlu8 EC50 μM (n)
From the text: as §1, §2, §3

mGlu7 [1] = target: mGlu7 (Homo sapiens (Human), UniProt Q14831); assay: Agonist activity on mGlu7 in transfected HEK293 cells, intracellular calcium release (Fluo4-AM); details: transfected cells, calcium release; read-out: mGlu7 EC50 μM (n)
From the text: as §1, §2, §3

mGlu7 [2] = assay: as above; details: ratio of mGlu7 EC50 to mGlu4 EC50
From the text: as §1, §2, §3

mGlu8, sequence (O00222 34-908): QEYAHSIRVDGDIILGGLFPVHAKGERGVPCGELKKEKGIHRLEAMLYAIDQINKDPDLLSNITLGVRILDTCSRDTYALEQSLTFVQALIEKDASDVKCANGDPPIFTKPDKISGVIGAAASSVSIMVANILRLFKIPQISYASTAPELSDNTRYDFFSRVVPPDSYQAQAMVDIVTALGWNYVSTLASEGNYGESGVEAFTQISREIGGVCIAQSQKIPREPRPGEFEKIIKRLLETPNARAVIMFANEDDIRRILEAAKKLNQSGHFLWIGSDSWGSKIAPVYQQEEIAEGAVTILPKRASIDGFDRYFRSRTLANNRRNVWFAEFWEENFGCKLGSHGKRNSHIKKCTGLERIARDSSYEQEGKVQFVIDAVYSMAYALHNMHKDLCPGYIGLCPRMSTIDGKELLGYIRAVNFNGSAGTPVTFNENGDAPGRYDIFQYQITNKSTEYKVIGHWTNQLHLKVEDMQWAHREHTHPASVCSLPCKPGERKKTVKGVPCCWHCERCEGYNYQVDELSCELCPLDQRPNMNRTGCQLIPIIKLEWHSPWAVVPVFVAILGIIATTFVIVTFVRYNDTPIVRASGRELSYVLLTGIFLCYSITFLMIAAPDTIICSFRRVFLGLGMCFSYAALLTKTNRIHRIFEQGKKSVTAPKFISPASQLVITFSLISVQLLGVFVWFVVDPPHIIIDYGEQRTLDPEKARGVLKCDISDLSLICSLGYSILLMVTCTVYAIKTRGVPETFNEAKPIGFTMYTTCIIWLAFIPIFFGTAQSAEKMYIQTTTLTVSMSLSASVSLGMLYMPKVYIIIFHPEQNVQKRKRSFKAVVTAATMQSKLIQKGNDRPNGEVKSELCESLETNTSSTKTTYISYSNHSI
mGlu4, sequence (Q14833 33-912): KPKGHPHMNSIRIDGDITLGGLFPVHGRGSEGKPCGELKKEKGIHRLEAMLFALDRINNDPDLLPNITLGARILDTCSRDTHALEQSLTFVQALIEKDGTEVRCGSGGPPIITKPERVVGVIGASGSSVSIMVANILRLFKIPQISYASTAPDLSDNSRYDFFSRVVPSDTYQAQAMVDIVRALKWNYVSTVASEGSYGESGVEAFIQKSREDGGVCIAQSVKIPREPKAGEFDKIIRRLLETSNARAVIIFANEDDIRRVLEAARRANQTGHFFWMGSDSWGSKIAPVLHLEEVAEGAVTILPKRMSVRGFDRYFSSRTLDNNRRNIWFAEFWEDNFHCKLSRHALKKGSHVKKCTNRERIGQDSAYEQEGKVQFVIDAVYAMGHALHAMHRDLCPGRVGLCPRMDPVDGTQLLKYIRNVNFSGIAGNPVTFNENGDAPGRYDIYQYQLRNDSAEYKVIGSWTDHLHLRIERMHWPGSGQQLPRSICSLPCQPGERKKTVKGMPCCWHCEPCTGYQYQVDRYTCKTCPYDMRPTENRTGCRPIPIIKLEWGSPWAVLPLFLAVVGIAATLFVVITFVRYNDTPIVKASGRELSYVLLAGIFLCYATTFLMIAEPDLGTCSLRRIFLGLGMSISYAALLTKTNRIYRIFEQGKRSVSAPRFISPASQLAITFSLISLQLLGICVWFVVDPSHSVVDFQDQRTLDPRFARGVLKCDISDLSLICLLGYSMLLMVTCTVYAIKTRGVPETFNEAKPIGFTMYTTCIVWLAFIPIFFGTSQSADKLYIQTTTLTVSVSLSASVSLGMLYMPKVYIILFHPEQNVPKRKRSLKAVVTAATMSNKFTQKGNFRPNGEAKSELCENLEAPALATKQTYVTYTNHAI
mGlu7 (Homo sapiens (Human), UniProt Q14831), sequence (Q14831 35-915): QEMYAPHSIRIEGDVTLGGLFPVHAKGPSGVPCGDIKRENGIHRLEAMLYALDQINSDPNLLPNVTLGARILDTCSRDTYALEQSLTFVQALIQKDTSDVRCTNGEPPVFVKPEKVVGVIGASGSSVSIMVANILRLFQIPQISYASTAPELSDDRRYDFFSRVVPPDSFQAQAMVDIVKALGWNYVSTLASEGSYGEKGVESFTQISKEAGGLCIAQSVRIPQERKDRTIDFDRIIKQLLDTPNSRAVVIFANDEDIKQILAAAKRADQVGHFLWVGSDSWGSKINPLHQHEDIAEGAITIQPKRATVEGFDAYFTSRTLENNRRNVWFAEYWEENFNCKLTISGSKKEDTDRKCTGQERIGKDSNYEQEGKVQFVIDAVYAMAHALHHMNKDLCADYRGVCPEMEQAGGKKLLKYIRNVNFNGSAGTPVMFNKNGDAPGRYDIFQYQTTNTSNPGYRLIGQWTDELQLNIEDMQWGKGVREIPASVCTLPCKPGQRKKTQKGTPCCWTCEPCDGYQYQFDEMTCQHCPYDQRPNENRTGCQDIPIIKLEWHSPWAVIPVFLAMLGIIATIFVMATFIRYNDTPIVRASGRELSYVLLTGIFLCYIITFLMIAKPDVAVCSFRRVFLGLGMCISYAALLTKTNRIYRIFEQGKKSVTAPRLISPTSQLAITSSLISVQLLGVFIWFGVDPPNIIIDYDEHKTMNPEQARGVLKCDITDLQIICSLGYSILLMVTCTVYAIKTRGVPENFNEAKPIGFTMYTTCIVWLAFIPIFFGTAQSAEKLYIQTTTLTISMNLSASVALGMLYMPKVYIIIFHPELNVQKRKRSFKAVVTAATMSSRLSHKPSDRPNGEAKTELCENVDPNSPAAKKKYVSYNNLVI

| SMILES | EC50 (mGlu4) | mGlu8/4 EC50 ratio (mGlu8) | EC50 (mGlu8) | EC50 (mGlu7 [1]) | mGlu7/4 EC50 ratio (mGlu7 [2]) | mGlu8/4 EC50 ratio (mGlu8; Hydrochloride) |
| --- | --- | --- | --- | --- | --- | --- |
| N[C@@H](CCP(=O)(O)Cc1ccc(OCC(=O)O)c(OC(F)(F)F)c1)C(=O)O (stereo in doubt) [Derivative 32, 2-amino-4-((4-(carboxymethoxy)-3-(trifluoromethoxy)benzyl)(hydroxy)phosphoryl)butanoic acid] | 1.22 ± 0.15 µM | >82 | > 100 µM | 16.2 ± 3.5 µM | 13 |  |
| N[C@@H](CCP(=O)(O)C(O)c1cc(Cl)c(OCC(=O)O)c(Cl)c1)C(=O)O (some centres unmarked) [Derivative 9] | 0.38 ± 0.09 µM | 484 | 109 ± 15 µM | 22.9 ± 7.8 µM | 60 |  |
| N[C@@H](CCP(=O)(O)C(O)c1ccc(SCC(=O)O)cc1)C(=O)O (stereo in doubt) [Derivative 26, 2-amino-4-(((4-(carboxymethylthio)phenyl)(hydroxy)methyl)(hydroxy)phosphoryl)butanoic acid] | 0.21 ± 0.04 µM | 5.9 | 1.23 ± 0.48 µM | 13 ± 1.1 µM | 62 |  |
| COc1cc(CP(=O)(O)CC[C@H](N)C(=O)O)ccc1OCC(=O)O (stereo in doubt) [Derivative 31, 2-amino-4-((4-(carboxymethoxy)-3-methoxybenzyl)(hydroxy)phosphoryl)butanoic acid] | 7.41 ± 1.55 µM | >40 | > 300 µM |  |  |  |
| COc1cc(CP(=O)(O)CC[C@H](N)C(=O)O)cc(F)c1OCC(=O)O (stereo in doubt) [Derivative 34, 2-amino-4-((4-(carboxymethoxy)-3-fluoro-5-methoxybenzyl)(hydroxy)phosphoryl)butanoic acid] | 3.09 ± 0.62 µM | 3 | 9.17 ± 2.37 µM | 232 ± 85 µM | 75 |  |
| N[C@@H](CCP(=O)(O)C(O)c1cccc(OCC(=O)O)c1)C(=O)O (single isomer, unassigned) [Derivative 16, Hydrochloride] | 4.9 ± 1 µM |  | 36 ± 18 µM |  |  |  |
| CCOc1cc(C(O)P(=O)(O)CC[C@H](N)C(=O)O)ccc1OCC(=O)O (stereo in doubt) [Derivative 19, 2-amino-4-(((4-(carboxymethoxy)-3-ethoxyphenyl)(hydroxy)methyl)(hydroxy)phosphoryl)butanoic acid] | 1.67 ± 0.33 µM | 15 | 25 ± 6 µM | 60.2 ± 10.6 µM | 36 |  |
| N[C@@H](CCP(=O)(O)C(O)c1ccc(OCC(=O)O)c(O)c1)C(=O)O (stereo in doubt) [Derivative 22, 2-amino-4-(((4-(carboxymethoxy)-3-hydroxyphenyl)(hydroxy)methyl)(hydroxy)phosphoryl)butanoic acid] | 1.1 ± 0.4 µM | 31 | 34 ± 19 µM | 15 ± 3.6 µM | 14 |  |
| N[C@@H](CCP(=O)(O)C(O)c1cccc(OCC(=O)O)c1)C(=O)O (single isomer, unassigned) [Derivative 17, Hydrochloride] | 13 ± 2.9 µM |  | 29.3 ± 7.2 µM |  |  |  |
| N[C@@H](CCP(=O)(O)C(O)c1ccc(OCC(=O)O)c(C(=O)O)c1)C(=O)O (stereo in doubt) [Derivative 23, 5-(((3-amino-3-carboxypropyl)(hydroxy)phosphoryl)(hydroxy)methyl)-2-(carboxymethoxy)benzoic acid] | 4 ± 0.6 µM | 1.9 | 7.4 ± 1.2 µM | 65 ± 13 µM | 16 |  |
| N[C@@H](CCP(=O)(O)Cc1ccc(OCC(=O)O)c(C(F)(F)F)c1)C(=O)O (stereo in doubt) [Derivative 33, 2-amino-4-((4-(carboxymethoxy)-3-(trifluoromethyl)benzyl)(hydroxy)phosphoryl)butanoic acid] | 62.5 ± 20.5 µM | 1.6 | > 100 µM | 301 ± 73 µM | 5 |  |
| COc1cc(CP(=O)(O)CC[C@H](N)C(=O)O)cc(Cl)c1OCC(=O)O (stereo in doubt) [Derivative 35, 2-amino-4-((4-(carboxymethoxy)-3-chloro-5-methoxybenzyl)(hydroxy)phosphoryl)butanoic acid] | 6.2 ± 0.58 µM | 6 | 38.2 ± 7.1 µM | > 300 µM | >48 |  |
| N[C@@H](CCP(=O)(O)C(O)c1ccc(OCC(=O)O)c(OC(F)(F)F)c1)C(=O)O (stereo in doubt) [Derivative 20, 2-amino-4-(((4-(carboxymethoxy)-3-(trifluoromethoxy)phenyl)(hydroxy)methyl)(hydroxy)phosphoryl)butanoic acid] | 0.06 ± 0.02 µM | 927 | 55.6 ± 12 µM | 1.97 ± 0.34 µM | 33 |  |
| N[C@@H](CCP(=O)(O)C(O)c1cccc(OCC(=O)O)c1)C(=O)O (stereo partly drawn) [Derivative 16, [((3S)-3-Ammonium-3-carboxy)propyl][(3-(carboxymethoxy)phenyl)hydroxymethyl]phosphinic Acid Hydrochloride] |  |  |  |  |  | 7.4 |
| N[C@@H](CCP(=O)(O)C(O)c1cccc(OCC(=O)O)c1)C(=O)O (stereo partly drawn) [Derivative 17, [((3S)-3-Ammonium-3-carboxy)propyl][(3-(carboxymethoxy)phenyl)hydroxymethyl]phosphinic Acid Hydrochloride] |  |  |  |  |  | 2.3 |
| N[C@@H](CCP(=O)(O)C(O)c1ccc(CCC(=O)O)cc1)C(=O)O (stereo partly drawn) [Derivative 12, [((3S)-3-Amino-3-carboxy)propyl][(4-(carboxyethyl)phenyl)hydroxymethyl]phosphinic Acid] | 0.98 ± 0.18 µM | 50 | 48.7 ± 9.6 µM | 37 ± 5 µM | 38 |  |
| N[C@@H](CCP(=O)(O)C(O)c1ccc(OCC(=O)O)c(OCC(=O)O)c1)C(=O)O (stereo partly drawn) [Derivative 18, [((3S)-3-Amino-3-carboxy)propyl][(3,4-di(carboxymethoxy)phenyl)hydroxymethyl]phosphinic Acid] | 2.5 ± 1.1 µM | 6 | 14.1 ± 7.3 µM |  |  |  |
| COc1cc(C(O)P(=O)(O)CC[C@H](N)C(=O)O)cc(F)c1OCC(=O)O (some centres unmarked) [Derivative 6] | 0.08 ± 0.02 µM | 129 | 10.3 ± 1.3 µM | 3.5 ± 1.3 µM | 44 |  |
| N[C@@H](CCP(=O)(O)C(O)c1ccc(OCC(=O)O)c([N+](=O)[O-])c1)C(=O)O (stereo in doubt) [Derivative 24, 2-amino-4-(((4-(carboxymethoxy)-3-nitrophenyl)(hydroxy)methyl)(hydroxy)phosphoryl)butanoic acid] | 0.26 ± 0.07 µM | 6.1 | 1.59 ± 0.82 µM | 11.2 ± 3.9 µM | 43 |  |
| N[C@@H](CCP(=O)(O)C(O)c1cccc(OCC(=O)O)c1)C(=O)O (mixture of isomers) [Derivative 15, [((3S)-3-Amino-3-carboxy)propyl][(3-(carboxymethoxy)phenyl)hydroxymethyl]phosphinic Acid] | 7.6 ± 2 µM |  | 71 ± 25 µM |  |  |  |
| COc1cc(C(O)P(=O)(O)CC[C@H](N)C(=O)O)cc(I)c1OCC(=O)O (some centres unmarked) [Derivative 8] | 0.15 ± 0.03 µM | 193 | 28 ± 4 µM | 6.6 ± 1.5 µM | 44 |  |
| CC(Oc1ccc(C(O)P(=O)(O)CC[C@H](N)C(=O)O)cc1)C(=O)O (stereo in doubt) [Derivative 29, 2-amino-4-(((4-(1-carboxyethoxy)phenyl)(hydroxy)methyl)(hydroxy)phosphoryl)butanoic acid] | 0.95 ± 0.16 µM | 15 | 14.3 ± 5.6 µM | 103 ± 7 µM | 109 |  |
| N[C@@H](CCP(=O)(O)C(O)c1cccc(OCC(=O)O)c1)C(=O)O (stereo partly drawn) [Derivative 15, [((3S)-3-Amino-3-carboxy)propyl][(3-(carboxymethoxy)phenyl)hydroxymethyl]phosphinic Acid] |  | 9.4 |  |  |  |  |
| N[C@@H](CCP(=O)(O)C(O)c1ccc(OCP(=O)(O)O)cc1)C(=O)O (stereo partly drawn) [Derivative 14, [((3S)-3-Amino-3-carboxy)propyl][(4-phosphonomethoxyphenyl)hydroxymethyl]phosphinic Acid] | 0.37 ± 0.12 µM | 303 | 112 ± 46 µM | 34 ± 10 µM | 92 |  |
